Test system: reverse cholesterol transport pathway (RCTP)
Assay: modulation of the reverse cholesterol transport pathway (RCTP); modified in vivo assay (MIVA), release of labeled cholesterol from loaded cells
Details: general statement in the description; the data are only in FIGS. 1-8, values not given
Protocol: In another embodiment, the invention includes a method of loading of cells, (e.g., macrophages in culture) with labeled cholesterol, e.g., radiolabeled cholesterol, by exposing the cells to autologous red cell membrane fragments which have been equilibrated with labeled cholesterol. The exposed cells phagocytose the red cell membrane fragments and internalize and store the labeled cholesterol becoming, in effect, foam cells. These ‘loaded’ cells are then administered, e.g., intraveneously injected, into a subject and allowed to distribute throughout the subject and settle within its organs (e.g., heart, lung, kidney, liver). A base level of cholesterol release is observed. After an appropriate length of time, the subject is treated with the test agent, or compound of interest and the release of label (e.g., labeled cholesterol) is measured and/or monitored as a function of time, dose, or dosing regimen. The appropriate length of time may be approximately twenty four hours, although it may also be longer or shorter, if so desired.
Stimulation of cholesterol release from the introduced loaded cells results in a transient increase in the amount of circulating label over baseline. Measurement of the kinetics of label release is carried out by direct analysis of samples of circulating whole blood, plasma, serum, feces, urine, saliva and/or cerebral spinal fluid. […]

With `CCCCCCCCCC[Si](C)(C)CCC(=O)NC(Cc1ccc(C)cc1)c1ccccc1` (stereo not shown) [Sandoz 58-035] the “effectiveness in modulation of the RCTP” value was “effective in modulation of the RCTP”.
